PMC4965013, “Open Source Drug Discovery with the Malaria Box Compound Collection for Neglected Diseases and Beyond” (PLoS Pathogens, 2016)

Columns and labels:
[1] = system: P. falciparum 3D7 trophozoites; assay: Metabolomic fingerprint profiling LC-MS; format: cell-based, Plasmodium falciparum; design: UDP-D-glucose / ADP-D-glucose: unit not given here; conditions: for Acetyllysine / N-acetyl-L-ornithine / N-carbamoyl-L-aspartate / NADPH / dAMP / dCMP / dTDP / dTMP / dTTP / dihydroorotate / orotate / DLH / DLS/SDL/SID / PD / PEE / PVNF / 3-phosphoglycerate / ADP-D-glucose / ATP / CDP / D-sedoheptulose-1/7-phosphate / FAD / GMP / NAD+ / NADP+ / Octoluse Bisphosphate / Pyroglutamic acid / UDP-D-glucose / UDP-D-glucuronate / UDP-N-acetyl-glucosamine / UDP / UMP / UTP / a-ketoglutarate / citrate/isocitrate / cytidine / dATP / dGMP/AMP / fumarate / glucose-1/6-phosphate / glycerate / guanine / guanosine / hypoxanthine / indole / inosine / nicotinate / ornithine / phosphoenolpyruvate / pyruvate / ribose-phosphate / sarcosine/alanine / sn-glycerol-3-phosphate / succinate/methylmalonic acid / uridine / xanthosine: S2 Table Metabolomics; for Acetyllysine: metabolite Acetyllysine; for N-acetyl-L-ornithine: metabolite N-acetyl-L-ornithine; for N-carbamoyl-L-aspartate: metabolite N-carbamoyl-L-aspartate; for NADPH: metabolite NADPH; for dAMP: metabolite dAMP; for dCMP: metabolite dCMP; for dTDP: metabolite dTDP; for dTMP: metabolite dTMP; for dTTP: metabolite dTTP; for dihydroorotate: metabolite dihydroorotate; for orotate: metabolite orotate; for DLH: peptide DLH; for DLS/SDL/SID: peptide DLS/SDL/SID; for PD: peptide PD; for PEE: peptide PEE; for PVNF: peptide PVNF; for 3-phosphoglycerate: metabolite 3-phosphoglycerate; for ADP-D-glucose: metabolite ADP-D-glucose; for ATP: metabolite ATP; for CDP: metabolite CDP; for CDP / D-sedoheptulose-1/7-phosphate / GMP / Octoluse Bisphosphate / UDP / UMP / UTP / citrate/isocitrate / dGMP/AMP / fumarate / glucose-1/6-phosphate / glycerate / guanine / guanosine / inosine / pyruvate / sarcosine/alanine / succinate/methylmalonic acid / uridine / xanthosine: change in metabolite level after compound treatment; for D-sedoheptulose-1/7-phosphate: metabolite D-sedoheptulose-1/7-phosphate; for FAD: metabolite FAD; for GMP: metabolite GMP; for NAD+: metabolite NAD+; for NADP+: metabolite NADP+; for Octoluse Bisphosphate: metabolite Octoluse Bisphosphate; for Pyroglutamic acid: metabolite Pyroglutamic acid; for UDP-D-glucose: metabolite UDP-D-glucose; for UDP-D-glucuronate: metabolite UDP-D-glucuronate; for UDP-N-acetyl-glucosamine: metabolite UDP-N-acetyl-glucosamine; for UDP: metabolite UDP; for UMP: metabolite UMP; for UTP: metabolite UTP; for a-ketoglutarate: metabolite a-ketoglutarate; for citrate/isocitrate: metabolite citrate/isocitrate; for cytidine: metabolite cytidine; for dATP: metabolite dATP; for dGMP/AMP: metabolite dGMP/AMP; for fumarate: metabolite fumarate; for glucose-1/6-phosphate: metabolite glucose-1/6-phosphate; for glycerate: metabolite glycerate; for guanine: metabolite guanine; for guanosine: metabolite guanosine; for hypoxanthine: metabolite hypoxanthine; for indole: metabolite indole; for inosine: metabolite inosine; for 2_3-Diphosphoglyceric acid / 4-phosphopantothenate / 6-phospho-D-gluconate / FMN / IMP / Pyrophosphate / Sedoheptoluse bisphosphate / cyclic-AMP / glutathione disulfide / lactate / myo-inositol: metabolite level change after treatment; for nicotinate: metabolite nicotinate; for ornithine: metabolite ornithine; for phosphoenolpyruvate: metabolite phosphoenolpyruvate; for pyruvate: metabolite pyruvate; for ribose-phosphate: metabolite ribose-phosphate; for sarcosine/alanine: metabolite sarcosine/alanine; for sn-glycerol-3-phosphate: metabolite sn-glycerol-3-phosphate; for succinate/methylmalonic acid: metabolite succinate/methylmalonic acid; for uridine: metabolite uridine; for xanthosine: metabolite xanthosine
P. falciparum = assay: EC50 listed in S2 Table Metabolomics (used to set the concentration tested); format: cell-based; conditions: Plasmodium falciparum; EC50 used for Factor_XEC50 in metabolomics; read-out: EC50_nM

In the case of `CCOC(=O)c1ccc2nc(-c3ccccc3)cc(O)c2c1` [MMV006457], the Acetyllysine [1] is reported as -0.3384, the N-acetyl-L-ornithine [1] is reported as -0.3139 and the N-carbamoyl-L-aspartate [1] is reported as 4.351. It also gave an NADPH [1] of 0.6352, a dAMP [1] of -0.4724 and a dCMP [1] of -0.3312. It also gave a dTDP [1] of -1.515, a dTMP [1] of -1.363 and a dTTP [1] of -1.304. For the same molecule, the dihydroorotate [1] was 4.958, the orotate [1] was -1.367 and the DLH [1] was -0.4882. It also gave a DLS/SDL/SID [1] of -0.4763, a PD [1] of 0.2786 and a PEE [1] of -0.4235. For the same molecule, the PVNF [1] was -0.7922, the 3-phosphoglycerate [1] was 0.07595 and the ADP-D-glucose [1] was 0.02112. For the same molecule, the ATP [1] was 0.06279, the CDP [1] was -1.282 and the D-sedoheptulose-1/7-phosphate [1] was -0.2959. For the same molecule, the FAD [1] was 0.202, the GMP [1] was 0.5528 and the “NAD+” value [1] was 0.1474. The “NADP+” value [1] was -0.1781, the “Octoluse Bisphosphate” value [1] was -0.2401 and the Pyroglutamic acid [1] was 0.01503. For the same molecule, the UDP-D-glucose [1] was 0.02564, the UDP-D-glucuronate [1] was -0.1377 and the UDP-N-acetyl-glucosamine [1] was -0.1506. The UDP [1] was -1.814, the UMP [1] was -1.819 and the UTP [1] was -1.644. For the same molecule, the a-ketoglutarate [1] was -0.2281, the citrate/isocitrate [1] was -0.877 and the cytidine [1] was 0.9143. For the same molecule, the dATP [1] was 0.2755, the dGMP/AMP [1] was -0.2048 and the fumarate [1] was 0.4222. For the same molecule, the glucose-1/6-phosphate [1] was 0.1449, the glycerate [1] was -0.03038 and the guanine [1] was 0.7811. It also gave a guanosine [1] of 0.4264, a hypoxanthine [1] of 0.2443 and an indole [1] of 0.3097. It also gave an inosine [1] of 0.319, a 2_3-Diphosphoglyceric acid [1] of -0.1036 and a 4-phosphopantothenate [1] of -0.4551. It also gave a 6-phospho-D-gluconate [1] of 0.1425, an FMN [1] of -0.04566 and an IMP [1] of 0.4558. It also gave a Pyrophosphate [1] of 0.1188, a Sedoheptoluse bisphosphate [1] of -0.2455 and a cyclic-AMP [1] of -0.04029. The glutathione disulfide [1] was 0.1448, the lactate [1] was 0.2927 and the myo-inositol [1] was -0.1285. For the same molecule, the nicotinate [1] was 0.07641, the ornithine [1] was 0.3647 and the phosphoenolpyruvate [1] was -0.1372. For the same molecule, the pyruvate [1] was -0.1462, the ribose-phosphate [1] was 0.3187 and the sarcosine/alanine [1] was 0.6115. It also gave a sn-glycerol-3-phosphate [1] of 0.3451, a succinate/methylmalonic acid [1] of -0.4755 and a uridine [1] of -0.2838. The xanthosine [1] was -0.0194 and the EC50 (P. falciparum) was 118 nM.
In the case of `Cc1cc(C)c2c(c1)OCN(Cc1ccccc1Cl)C2` [MMV006558], the Acetyllysine [1] is reported as -2.938, the N-acetyl-L-ornithine [1] is reported as -1.964 and the N-carbamoyl-L-aspartate [1] is reported as -1.702. For the same molecule, the NADPH [1] was 1.445, the dAMP [1] was -0.9651 and the dCMP [1] was -1.6. The dTDP [1] was -0.8236, the dTMP [1] was -0.6183 and the dTTP [1] was -0.3776. The dihydroorotate [1] was -0.3745, the orotate [1] was -1.522 and the DLH [1] was -1.617. The DLS/SDL/SID [1] was -1.662, the PD [1] was -0.9196 and the PEE [1] was -0.2697. For the same molecule, the PVNF [1] was -2.308, the 3-phosphoglycerate [1] was 0.4267 and the ADP-D-glucose [1] was 0.5003. It also gave an ATP [1] of -0.07449, a CDP [1] of -0.458 and a D-sedoheptulose-1/7-phosphate [1] of -0.2481. For the same molecule, the FAD [1] was -0.09577, the GMP [1] was -0.6278 and the “NAD+” value [1] was -0.187. The “NADP+” value [1] was 0.696, the “Octoluse Bisphosphate” value [1] was 0.1942 and the Pyroglutamic acid [1] was -0.3768. For the same molecule, the UDP-D-glucose [1] was -0.01001, the UDP-D-glucuronate [1] was -0.03433 and the UDP-N-acetyl-glucosamine [1] was -0.1316. It also gave a UDP [1] of -0.1918, a UMP [1] of -1.063 and a UTP [1] of -0.2178. It also gave an a-ketoglutarate [1] of -0.938, a citrate/isocitrate [1] of -0.4783 and a cytidine [1] of 0.109. For the same molecule, the dATP [1] was -0.2852, the dGMP/AMP [1] was -0.5349 and the fumarate [1] was -0.8198. For the same molecule, the glucose-1/6-phosphate [1] was -0.2057, the glycerate [1] was -0.7466 and the guanine [1] was -1.035. For the same molecule, the guanosine [1] was -2.479, the hypoxanthine [1] was -0.7995 and the indole [1] was -0.5445. It also gave an inosine [1] of -0.9523, a 2_3-Diphosphoglyceric acid [1] of 0.34 and a 4-phosphopantothenate [1] of -0.8939. It also gave a 6-phospho-D-gluconate [1] of 0.2839, an FMN [1] of -0.2862 and an IMP [1] of -0.2354. For the same molecule, the Pyrophosphate [1] was 0.3685, the Sedoheptoluse bisphosphate [1] was 0.2016 and the cyclic-AMP [1] was -0.8187. It also gave a glutathione disulfide [1] of -0.2625, a lactate [1] of -0.7314 and a myo-inositol [1] of -0.7596. The nicotinate [1] was -0.1344, the ornithine [1] was -0.1775 and the phosphoenolpyruvate [1] was 0.3748. For the same molecule, the pyruvate [1] was -0.4201, the ribose-phosphate [1] was -0.1559 and the sarcosine/alanine [1] was -0.2827. It also gave a sn-glycerol-3-phosphate [1] of 0.1135, a succinate/methylmalonic acid [1] of -0.725 and a uridine [1] of -1.514. The xanthosine [1] was -1.032 and the EC50 (P. falciparum) was 268 nM.
